Experiments:
[1] = system: db/db mouse; assay: In vivo evaluation on db/db mouse: body weight, glycemia, insulinemia, plasma lipids; conditions: 50 mpk per os, 28 days
Procedure: The effect of the compounds according to the invention is evaluated in vivo on the db/db mouse by measuring the body weight evolution, the glucose levels, the insulin levels, the plasma total cholesterol and triglyceride levels, and by analyzing the distribution of cholesterol in different plasma lipoprotein fractions, after 28 days of a per os treatment with compounds according to the invention.
Female db/db mice were kept on a 12 hour/12 hour light/dark cycle at a constant temperature of 20±3° C. After a one week acclimatization period, the mice were weighed and divided into groups of 8 animals selected so as to render uniform the distribution of their body weights and their plasma lipid rates, determined before the experiment. The tested compounds were suspended in carboxymethylcellulose (Sigma C4888) and administered intra-gastric tube feeding once a day for 28 days at the chosen dose. The animals had free access to food and water (standard diet). Taking of food and weight gain are recorded throughout the experiment. At the end of the experiment, the animals were anesthetized after a 4 hour fast, a blood sample was taken using (EDTA) anticoagulant, then the mice were weighed and euthanized. The plasma was separated by centrifugation at 3000 rotations/minute for 20 minutes. The samples were kept at +4° C. The hepatic tissue and skeletal muscle tissue samples were taken and frozen immediately in liquid nitrogen then conserved at −80° C. for later analysis.
Murine plasma glucose is measured out according to an enzyme-colorimetric method using a Glucose RTU kit (Biomérieux). Glucose is transformed into gluconic acid under the action of glucose oxidase; the reaction releases hydrogen peroxide. Hydrogen peroxide is measured according to the Trinder reaction which, under the action of a peroxidase and in the presence of phenol and amino-4-antipyrine, produces water and a colored product, quinoneimine. The color intensity, due to the quinoneimine, is proportional to the amount of glucose present in the sample.
Murine insulin is measured using ELISA method (using the INSKR020 kit from provider Crystal chem.). A microplate is coated with a mouse anti-insulin antibody. Then, the serum to be assayed for insulin is placed onto the plate. A guinea pig anti-insulin antibody is used to recognize the complex formed by the mouse insulin and the anti-insulin monoclonal antibody. Finally an anti-guinea pig antibody labeled with peroxidase is added and bind to the guinea pig anti-insulin antibody. The colorimetric reaction is performed by adding an OPD (ortho phenyl diamine) enzyme substrate. The intensity of the color is proportional to the amount of insulin present in the sample.
Plasma lipid concentrations (total cholesterol and triglycerides) are measured by enzymatic assays (bioMérieux-Lyon-France) according to the provider's recommendations.
The different lipid fractions (VLDL, LDL, HDL) in the plasma were separated using gel-filtration chromatography. Cholesterol concentrations were then measured for each fraction by enzymatic assays (bioMérieux-Lyon-France) according to the provider's recommendations.

[2] = system: PPARs target genes (PDK4, UCP2); assay: Hepatic and skeletal muscle gene expression by quantitative RT-PCR in db/db mouse; assay type: in vivo; conditions: 50 mpk, 28 days
Procedure: The effectiveness of the compounds according to the invention is also evaluated by measuring, in the hepatic and muscular (skeletal) tissues, the expression of genes involved in lipid and/or glucid metabolism and in energy dissipation. Each level of gene expression is normalized regarding the expression level of the reference gene 36B4 in the hepatic tissue, or regarding the expression level of the reference gene 18S in the gastrocnemius skeletal muscle. The induction factor, i.e. the ratio between the relative signal (induced by the compound according to the invention) and the average of the relative values obtained with the control group, is then calculated. The higher the induction factor is, the more the greater the compound promotes gene expression. The final result is represented as the average of the induction values obtained with each experimental group. • FIG. 4-8: Expression of PDK4 in the hepatic tissue of the db/db mouse, after 28 days of treatment with compound 1 and compound 3, administered at 50 mpk • FIG. 4-9: Expression of UCP2 (uncoupling protein 2) in the skeletal muscle tissue of the db/db mouse, after 28 days of treatment with compound 1 and compound 3, administered at 50 mpk
Total RNA was extracted from liver fragments by using a NucleoSpin® 96 RNA kit (Macherey Nagel, Hoerdt, France) according to the manufacturer's instructions.
Total RNA was extracted from gastrocnemius skeletal muscle fragments by using a RNeasy® Fibrous Tissue kit (Qiagen) according to the manufacturer's instructions.
1 μg of total RNA (quantified by spectrophotometry) was then reverse-transcripted into complementary DNA by means of a 1 hour reaction at 37° C. in a total volume of 20 μl containing a 1× buffer (Sigma), 1.5 mM of DTT, 0.18 mM of dNTPs (Promega), 200 ng of pdN6 (Amersham), 30 U of RNase inhibitor (Sigma), and 1 μl of MMLV-RT (Sigma).
The PCR quantitative experiments were carried out using the MyiQ Single-Color Real-Time PCR Detection System (Biorad, Marnes-la-Coquette, France) and were performed using the iQ SYBR Green Supermix kit according to the provider's recommendations, in 96-well plates in 5 μl of a diluted reverse-transcription solution at a hybridization temperature of 55° C. The specific primer pairs of the genes being studied were used:
The amount of fluorescence emitted is directly proportional to the amount of complementary DNA present at the beginning of the reaction and amplified during the PCR. For each target studied, a range of solutions is performed with successive dilutions of mixtures of a few microliters of different reverse-transcription solutions. The relative levels of expression of each target are thus determined by using efficiency curves obtained with the points relative to the range of PCR solutions. […]

[3] = system: THP-1 human monocytes; assay: Secretion of MCP1 by THP-1 monocytes stimulated with PMA; assay type: cell-based; conditions: THP-1 cells, 1 μM compound, 5 ng/ml PMA, 24 hours, vs DMSO
Procedure: (§1) The anti-inflammatory effects of the compound according to the invention is evaluated by measuring the secretion of MCP1 (Monocyte chemotactic protein-1) by THP1 monocytes treated for 24 hours with the compounds according to the invention and stimulated simultaneously with PMA (Phorbol 12-myristate 13-acetate, which promotes an inflammatory response in cells and their differentiation into macrophages).
as §1, with “the compounds” for “the compound”, “invention were” for “invention is”, “by” for “by THP1”, “with” for “with the”, “macrophages). […]” for “macrophages).”
The treatment medium is recovered and the MCP1 concentration is measured using the ELISA kit <<Human MCP-1 ELISA Set>> (BD OptEIA; 555179) in accordance with the manufacturer's recommendation.
MCP1 is laid on a plate and is recognized by an anti-MCP1 specific antibody. […] The coloration resulting from enzymatic activity is proportional to the quantity of fixed MCP1 and can be measured by a spectrophotometry method. A range is performed from a point representative of a known concentration and from which the MCP1 concentration of each sample is calculated. […]

Cc1cc(CCC(=O)c2ccc(Br)cc2)cc(C)c1OC(C)(C)C(=O)O [Compound 3, 2-[2,6-dimethyl-4-[3-[4-bromophenyl]-3-oxo-propyl]phenoxy]-2-methylpropanoic acid]
HDL-cholesterol fraction (distribution of cholesterol in plasma lipoprotein fractions) [1]: significant increase | plasma free fatty acids ([1]; vs control): very significantly decreased | plasma triglycerides ([1]; vs control): very significantly decreased | total plasma cholesterol ([1]; vs control): significantly increased | expression of the gene coding for UCP2 in the skeletal muscle ([2]; gastrocnemius skeletal muscle): reduction | hepatic expression of the gene coding for PDK4 ([2]; hepatic tissue): significant increase | MCP1 secreted by monocytes [3]: significant reduction

— patent US8188148B2, “Substituted 1,3-diphenylpropane derivatives, preparations and uses thereof” (Genfit, priority 2006, dated 2012)
